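In this assay, cells in 96-well plates receive the compound at five concentrations for 48 hours. Endpoints are linearly interpolated between the surrounding concentrations. TGI: total growth inhibition.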 A value given as a limit tells only on which side of the number the result lay.

Test systems include A549 NSCLC; CAKI-1 renal; EKVX NSCLC; HL-60(TB) leukemia; HOP-62 NSCLC; HOP-92 NSCLC; MCF7 breast; MDA-MB-231 breast; MDA-MB-435; MDA-N; NCI-H23 lung; NCI/ADR-RES ovarian; OVCAR-8 ovarian; SF-295 CNS; SF-539 CNS; SK-OV-3 ovarian; SN12C renal; SW-620 colon; TK-10 renal; A498 renal.
Holding throughout (assay): NCI tumour cell line growth inhibition, 48 h

As to `CCN(CCCN(CC)C(=O)Nc1ccccc1)C(=O)Nc1ccccc1`, the TGI in the assay on A549 NSCLC, in the assay with CAKI-1 renal, in the assay with EKVX NSCLC, with HL-60(TB) leukemia, in the assay with HOP-62 NSCLC and in the assay on HOP-92 NSCLC was > 100 µM each time. The TGI with MCF7 breast, in the assay with MDA-MB-231 breast, with MDA-MB-435, in the assay on MDA-N, in the assay with NCI-H23 lung and with NCI/ADR-RES ovarian was > 100 µM in each case. Also, the TGI with OVCAR-8 ovarian, with SF-295 CNS, in the assay with SF-539 CNS, in the assay with SK-OV-3 ovarian, in the assay on SN12C renal and in the assay on SW-620 colon was > 100 µM each time. Also, the TGI with TK-10 renal is > 100 µM.

Take `C=C(C(=O)O)C1CCC(CC/C=C(\C)CC/C=C(\C)CCC=C(C)C)CO1` (configuration not stated): the TGI with A498 renal was 54.4 µM; in the assay on A549 NSCLC, 32.4 µM; in the assay on CAKI-1 renal, > 100 µM; with EKVX NSCLC, 34.1 µM; in the assay with HL-60(TB) leukemia, 69.4 µM; in the assay on HOP-62 NSCLC it was 55.6 µM. In addition, the TGI with MCF7 breast was 32.6 µM; with MDA-MB-231 breast, > 100 µM; with MDA-MB-435 it was 53.7 µM; in the assay with MDA-N it was 27.8 µM; in the assay on NCI-H23 lung it was 40.5 µM; in the assay with NCI/ADR-RES ovarian it was 81.8 µM. Besides, the TGI was 39.9 µM in the assay with OVCAR-8 ovarian; 42.8 µM with SF-295 CNS; 32.4 µM in the assay with SF-539 CNS; > 100 µM with SK-OV-3 ovarian; 34.3 µM in the assay on SN12C renal; 33.4 µM with SW-620 colon. The same compound had a TGI with TK-10 renal of 81.8 µM.

For the compound `CCO[C@@H]1CCC(S(=O)c2ccc(C)cc2)=CO1` (some centres not stated), the TGI with A498 renal, in the assay on CAKI-1 renal, in the assay on EKVX NSCLC, in the assay on HL-60(TB) leukemia, with HOP-62 NSCLC and with MCF7 breast was > 100 µM in each case. Moreover, the TGI in the assay on MDA-MB-231 breast, in the assay with MDA-MB-435, in the assay with MDA-N, in the assay on NCI-H23 lung, in the assay on NCI/ADR-RES ovarian and with OVCAR-8 ovarian was > 100 µM in each case. The TGI in the assay with SF-295 CNS, with SN12C renal, with SW-620 colon and with TK-10 renal was > 100 µM each time.

On to `COc1cc(C[C@H]2C(=O)OC[C@@H]2Cc2ccc(OC)c(OC)c2)cc(OC)c1`, for which the TGI in the assay with A549 NSCLC was > 100 µM; in the assay on CAKI-1 renal, > 100 µM; with EKVX NSCLC, > 100 µM; with HL-60(TB) leukemia, 77.1 µM; in the assay with HOP-62 NSCLC, > 100 µM; with HOP-92 NSCLC it was > 100 µM. Further, the TGI in the assay on MCF7 breast, in the assay with MDA-MB-231 breast, in the assay with MDA-MB-435, with MDA-N, in the assay with NCI-H23 lung and in the assay with NCI/ADR-RES ovarian was > 100 µM each time. Moreover, the TGI in the assay with OVCAR-8 ovarian, in the assay with SF-295 CNS, with SF-539 CNS, with SK-OV-3 ovarian, in the assay on SN12C renal and in the assay with SW-620 colon was > 100 µM each time. The TGI in the assay with TK-10 renal is > 100 µM.

Take `C(=Nc1ccc(-c2cc(-c3ccccc3)nc3ccc4ccccc4c23)cc1)c1ccccc1`: the TGI in the assay with A498 renal was 70.3 µM; in the assay with A549 NSCLC it was 62.2 µM; with CAKI-1 renal, 75.4 µM; in the assay on EKVX NSCLC, 92.8 µM; with HL-60(TB) leukemia, > 100 µM; in the assay on HOP-62 NSCLC, 56.1 µM. Also, the TGI in the assay with MCF7 breast was > 100 µM; in the assay with MDA-MB-231 breast it was > 100 µM; in the assay with MDA-MB-435 it was 55.5 µM; in the assay on MDA-N it was > 100 µM; with NCI-H23 lung, > 100 µM; with NCI/ADR-RES ovarian it was > 100 µM. Further, the TGI was > 100 µM in the assay on OVCAR-8 ovarian; 48.8 µM in the assay with SF-295 CNS; 66.3 µM in the assay with SF-539 CNS; > 100 µM with SK-OV-3 ovarian; > 100 µM in the assay on SN12C renal; > 100 µM in the assay on SW-620 colon. In the assay on TK-10 renal, the TGI was determined as 74.6 µM.

Turning to `N#CCC(=O)c1cc(OCc2cc(OCc3ccc(Br)cc3)cc(OCc3ccc(Br)cc3)c2)cc(OCc2cc(OCc3ccc(Br)cc3)cc(OCc3ccc(Br)cc3)c2)c1`, the TGI with A498 renal, with A549 NSCLC, in the assay with CAKI-1 renal, in the assay with EKVX NSCLC, in the assay on HOP-62 NSCLC and in the assay on HOP-92 NSCLC was > 100 µM each time. In addition, the TGI with MCF7 breast, in the assay on MDA-MB-231 breast, with MDA-MB-435, in the assay with MDA-N, in the assay with NCI-H23 lung and in the assay on NCI/ADR-RES ovarian was > 100 µM throughout. Moreover, the TGI in the assay on SF-295 CNS, with SK-OV-3 ovarian, with SN12C renal and with TK-10 renal was > 100 µM throughout.

For the compound `c1ccc(-c2ccc(-c3cc4ccccc4[nH]3)cc2)cc1`, the TGI in the assay on A549 NSCLC, in the assay on CAKI-1 renal, in the assay on EKVX NSCLC, in the assay on HL-60(TB) leukemia, in the assay with HOP-62 NSCLC and in the assay on HOP-92 NSCLC was > 100 µM each time. Further, the TGI with MCF7 breast, with MDA-MB-231 breast, in the assay on MDA-MB-435, in the assay on MDA-N, in the assay on NCI-H23 lung and in the assay on NCI/ADR-RES ovarian was > 100 µM each time. Besides, the TGI in the assay on OVCAR-8 ovarian, in the assay with SF-295 CNS, in the assay with SF-539 CNS, with SK-OV-3 ovarian, with SN12C renal and with SW-620 colon was > 100 µM in each case. The TGI in the assay with TK-10 renal was > 100 µM.

On to `O=C(Cn1cc(F)c(=O)[nH]c1=O)C12CC3CC(CC(C3)C1)C2`, for which the TGI with A498 renal, with A549 NSCLC, in the assay with CAKI-1 renal, in the assay with EKVX NSCLC, in the assay with HL-60(TB) leukemia and with HOP-62 NSCLC was > 100 µM each time. The TGI with MCF7 breast, in the assay with MDA-MB-231 breast, with MDA-MB-435, in the assay on MDA-N, in the assay with NCI-H23 lung and in the assay with NCI/ADR-RES ovarian was > 100 µM throughout. Also, the TGI with OVCAR-8 ovarian, in the assay with SF-295 CNS, with SF-539 CNS, in the assay on SK-OV-3 ovarian, in the assay on SN12C renal and in the assay on SW-620 colon was > 100 µM each time. In addition, the TGI with TK-10 renal is > 100 µM.

In the case of `Cc1ccccc1NC(=O)C(=O)CC(=O)c1sc(Nc2ccccc2[N+](=O)[O-])nc1C`, the TGI in the assay with A549 NSCLC is > 100 µM; with CAKI-1 renal, > 100 µM; in the assay with EKVX NSCLC, > 100 µM; in the assay with HL-60(TB) leukemia, > 100 µM; in the assay on HOP-62 NSCLC, 58.1 µM; in the assay with HOP-92 NSCLC it was 59.6 µM. Also, the TGI in the assay on MCF7 breast was 70.3 µM; with MDA-MB-231 breast, 40.2 µM; with MDA-MB-435 it was > 100 µM; in the assay on MDA-N, > 100 µM; in the assay with NCI-H23 lung it was > 100 µM; in the assay on NCI/ADR-RES ovarian, > 100 µM. Also, the TGI in the assay with OVCAR-8 ovarian is > 100 µM; in the assay with SF-295 CNS it was 66.7 µM; in the assay with SF-539 CNS, 91 µM; in the assay with SK-OV-3 ovarian, 58.7 µM; in the assay with SN12C renal, > 100 µM; with SW-620 colon it was > 100 µM. The compound further showed a TGI in the assay with TK-10 renal of 81.5 µM.

As to `COc1ccc(C2C3CCc4ccccc4C3=NN2S(=O)(=O)c2ccc(Cl)cc2)cc1` (configuration not stated), the TGI was > 100 µM in the assay on A549 NSCLC; > 100 µM with CAKI-1 renal; > 100 µM with EKVX NSCLC; 74.9 µM in the assay on HL-60(TB) leukemia; > 100 µM with HOP-62 NSCLC; > 100 µM in the assay with HOP-92 NSCLC. Further, the TGI in the assay on MCF7 breast was 34.8 µM; in the assay on MDA-MB-231 breast, > 100 µM; in the assay on MDA-MB-435, 4.62 µM; in the assay on MDA-N, 9.19 µM; in the assay on NCI-H23 lung, > 100 µM; in the assay with NCI/ADR-RES ovarian it was 21.9 µM. Moreover, the TGI is > 100 µM with OVCAR-8 ovarian; 50.9 µM with SF-295 CNS; 39.1 µM with SF-539 CNS; 16 µM with SK-OV-3 ovarian; > 100 µM with SN12C renal; > 100 µM with SW-620 colon. For the same compound, the TGI in the assay with TK-10 renal was > 100 µM.

With `C#CCOCn1ccc(=O)[nH]c1=O`, the TGI in the assay on A498 renal, in the assay on A549 NSCLC, in the assay with CAKI-1 renal, in the assay with EKVX NSCLC, in the assay with HL-60(TB) leukemia and in the assay with HOP-62 NSCLC was > 100 µM throughout. In addition, the TGI in the assay with MCF7 breast, with MDA-MB-231 breast, in the assay with MDA-MB-435, in the assay on MDA-N, in the assay on NCI-H23 lung and in the assay on NCI/ADR-RES ovarian was > 100 µM each time. Further, the TGI in the assay on OVCAR-8 ovarian, with SF-295 CNS, with SF-539 CNS, in the assay with SK-OV-3 ovarian, with SN12C renal and in the assay with SW-620 colon was > 100 µM throughout. Further, the TGI in the assay with TK-10 renal was > 100 µM.

`CN1CCN(c2cc3c(cc2F)c(=O)c(C(=O)O)cn3C2CC2)CC1CC#N` (configuration not stated): the TGI with A498 renal, with A549 NSCLC, in the assay on CAKI-1 renal, in the assay on EKVX NSCLC, in the assay with HL-60(TB) leukemia and in the assay with HOP-62 NSCLC was > 100 µM throughout. The TGI in the assay with MCF7 breast, in the assay with MDA-MB-231 breast, in the assay on MDA-MB-435, in the assay with MDA-N, in the assay with NCI-H23 lung and in the assay on NCI/ADR-RES ovarian was > 100 µM throughout. In addition, the TGI in the assay with OVCAR-8 ovarian, with SF-295 CNS, in the assay on SF-539 CNS, with SK-OV-3 ovarian, with SN12C renal and in the assay with SW-620 colon was > 100 µM throughout. Also, the TGI in the assay on TK-10 renal is > 100 µM.

The values above are taken from PubChem BioAssay (NCI).
